Molecules are shown by their SMILES. Where two headings read alike, the source gives them in different places.

Usually IC50 stands for the point on the concentration scale where inhibition reaches its midpoint.

Series [1] is described as follows: Octanol-water partition coefficient (pre-formulation). It counts as physicochemical. An excerpt:
The pre-formulation studies on CLEFMA depicted it as a highly hydrophobic drug with octanol-water partition coefficient of 5.66. It was hypothesized that liposomes might serve as a vehicle for CLEFMA preparation meant for parenteral administration. Parenteral liposome formulations of lipophilic drugs are challenging. Incorporation of a lipid-partitioning drug in liposomes may produce structurally instable liposomes, resulting in burst-release of drug, rapid clearance from the body, and/or overall poor efficacy. The entrapment of cyclodextrin (CD)-based inclusion complexes (IC) inside the liposomes can be a reliable and effective method of encapsulation of hydrophobic drugs. This strategy was first reported by Gregoriades [McCormack et al., 1994], and has recently been used for the encapsulation of isotretinoin [Kaur et al., 2010].

The test system of series [2] is colon (HCT-116) cancer cells. The series is described as follows: Proliferation of colon cancer HCT-116 cells. It counts as cell-based.
Series [3] is described as follows: Phase solubility analysis with HPβCD. It counts as physicochemical. The procedure: CLEFMA was synthesized and characterized according to the methods described in Example 1. A phase solubility analysis of CLEFMA was performed according to the published method [Higuchi et al., 1965], and ICs of CLEFMA with HPβCD in the solution phase were prepared as reported previously [Agashe et al., 2010]. Briefly, an excess of CLEFMA was added to 5 ml of HPβCD solution (1 g/ml). The mixture was continuously agitated on a shaker incubator at 25° C. for 72 h. After allowing settling of coarse particulate matter for 6 h, the supernatant was centrifuged at 14,000 rpm for 15 min to obtain a clear supernatant free of any insoluble material. The solution was passed through a sterile 0.22 μm cellulose acetate filter, and the amount of HPβCD-solubilized CLEFMA was estimated spectrophotometrically at 320 nm. The phase solubility diagram was constructed by plotting the estimated CLEFMA concentration against HPβCD concentrations. The stability constant was calculated from the phase diagram using the following equation— K1:1=Slope/[S0(1−Slope)], where S0 is CLEFMA solubility in the absence of HPβCD
The complexation efficiency (CE) was calculated as a product of S0 and K1:1

Series [4] relates to H441 cells. Kind of series: Reactive oxygen species assay (DCFH-DA) in H441 cells. As to conditions: 24 and 48 h. It counts as cell-based, human. The procedure:
Reactive oxygen species (ROS) assay: The CLEFMA-induced generation of ROS in H441 and CCL-151 cells was measured using the OxiSelect assay kit (Cell Biolabs, Inc., San Diego, Calif.). Briefly, the cells were cultured in 96-well plates, and the cell-permeable fluorogenic probe 2′,7′-dichlorodihydrofluorescin diacetate (DCFH-DA) was added to the wells and the plate was incubated for 30-60 min. The wells were washed thrice with PBS and treated with CLEFMA in culture medium for 24 and 48 h. After the incubation period, the medium was removed and the cells were gently washed 2-3 times with PBS, and the fluorescence, indicating ROS activity, was measured at 480 nm/530 nm (excitation/emission wavelengths) using the Cytoflour 2300 (Millipore, Billerica, Mass.).

In series [5] the test system is lung adenocarcinoma cell line H441. Kind of series: Cell proliferation (hexosaminidase assay) in lung adenocarcinoma H441 cells, Example 1. The note with it: for IC50: Homo sapiens, NCI-H441, 24 h of treatment. It counts as cell-based, human. On the procedure:
Cell Proliferation Studies: In order to assess the anti-proliferative activity of the synthesized compounds, an in vitro cell culture system of lung adenocarcinoma cell line H441 was used. The cell detachment and anti-proliferative activity was measured as a decrease in hexosaminidase enzyme activity associated with remainder of the adhered cells. [Landegren, 1984] […] The concentration versus cell proliferation plots were analyzed by an exponential fit (Table 1). The results were compared with the anti-proliferative activity of compound 1.
(§1) Cell Culture and drug treatment: Human lung adenocarcinoma cell line NCI-H441 (ATCC Number: HTB-174) was obtained from the American Type Culture Collection (Manassas, Va.). H441 cells were maintained at 37° C. with 5% CO2 in McCoy's 5A Medium (Invitrogen, Carlsbad, Calif.) supplemented with 5% heat-inactivated fetal bovine serum (FBS). All media contained gentamicin at 50 μg/ml (GIBCO Laboratories, Grand Island, N.Y.). Other cells lines (PANC-1, MiaPaCa-2 and PC-3) were also similarly maintained, except that the cell culture medium was RPMI 1640 instead of McCoy's.
To evaluate the anti-proliferative activity of synthesized bis(2-fluorobenzylidene)-4-piperidone and its derivatives, the cells were seeded in 96-well flat-bottom tissue culture plates at a density of 10×10^3 cells per well. The cells were allowed to attach and grow overnight. The test compounds were solubilized in dimethyl sulfoxide (DMSO), filtered through 0.2 μm nylon filter and added to cells at 1, 10, 25 and 100 μM concentrations in culture medium supplemented with 5% FBS. The DMSO concentration was maintained at 0.1% per well. Control wells received equivalent volume of DMSO without any test compounds. The cells were allowed to remain in the treatment medium for 24, 48 and 72 hours.
Cell Proliferation: The total number of cells after the treatment period was estimated by the hexosaminidase assay. [Landegren, 1984] Briefly, the medium was removed and hexosaminidase substrate solution in citrate buffer pH 5 (7.5 mM), […] (Calbiochem, San Diego, Calif.) was added at 60 μl per well. The plate was incubated at 37° C. in 100% humidity for 30 minutes, before stopping the reaction with 90 μl of 50 mM glycine containing 5 mM of EDTA (pH 10.4). The absorbance was measured at 405 nm. The experiments were conducted in triplicate, and repeated at least twice. The data were analyzed as percent of control, where the control wells were treated with equivalent amounts of DMSO alone, and the analyzed data was presented as average±standard error of mean. The differences among mean values were deemed significant at p<0.05.
For IC50 calculations, a plot between the drug concentration and hexosaminidase activity was generated and the data was fitted either linearly or exponentially. The best fit was used for further processing of data.

The subject of series [6] is H441 cells. Kind of series: Monodansylcadaverine fluorescence microscopy of autophagosomes in H441 cells. It counts as cell-based, human. The procedure:
Monodansylcadaverine (MDC) is an autofluorescent marker for autophagic vacuoles. [Biederbick et al., 1995] It was found the emergence of intense MDC-fluorescence in the treated cells. The fluorescence vanished when the cells were treated with 3-methyl adenine (3-MA). […] [Seglen et al., 1982]

Series [7] has as its system PANC-1 (pancreatic cancer) cells. Kind of series: Cell proliferation study in PANC-1 cells. It counts as cell-based. On the procedure: as §1
(§2) To evaluate the anti-proliferative activity of synthesized bis(2-fluorobenzylidene)-4-piperidone and its derivatives, the cells were seeded in 96-well flat-bottom tissue culture plates at a density of 10×10^3 cells per well. The cells were allowed to attach and grow overnight. The test compounds were solubilized in dimethyl sulfoxide (DMSO), filtered through 0.2 μm nylon filter and added to cells at 1, 10, 25 and 100 μM concentrations in culture medium supplemented with 5% FBS. […]
(§3) Cell Proliferation: The total number of cells after the treatment period was estimated by the hexosaminidase assay. […] The absorbance was measured at 405 nm. […] The data were analyzed as percent of control, where the control wells were treated with equivalent amounts of DMSO alone, and the analyzed data was presented as average±standard error of mean. […]

Series [8] can be described thus: Histopathology of liver, lung and kidney. It counts as in vivo. As to conditions: rats treated with CLEFMA liposomes. From the text:
After the animals were euthanized, a part of the liver, lung and kidney were fixed in 10% formalin. The formalin-preserved tissues were used for histology by staining 5 μm sections of paraffin-embedded tissues with H&E stain. The sections were read by a veterinary pathologist (OUHSC, Oklahoma City) in a blinded fashion for the presence of necrosis, hemorrhage, inflammation or any other pathological changes.

For series [9], the system named is MiaPaCa-2 (pancreatic cancer) cells. Kind of series: Cell proliferation study in MiaPaCa-2 cells. It counts as cell-based. On the procedure: as §1, §2, §3

Turning to `O=C(O)C=CC(=O)N1CC(=Cc2ccccc2Cl)C(=O)C(=Cc2ccccc2Cl)C1` [Compound 29, 4-[3,5-Bis-(2-chlorobenzylidene)-4-oxo-piperidin-1-yl]-4-oxo-2-butenoic acid], the octanol-water partition coefficient in series [1] is on record as 5.66. Further, the control of proliferation result in [2] is given as “equally potent in controlling proliferation”. Moreover, the “stability constant of the complex with HPβCD” value in series [3] (25° C.) came to 0.0126 M⁻¹. Also, in [3] (product of S0 and K1:1), the complexation efficiency entry is given as “approximately 0.57”. In addition, in the series on H441 cells [4], the ROS generation entry was “generated ROS in a dose- and time-dependent fashion”. In addition, the “anti-proliferative activity in words, relative to the comparator named” value in [5] is “enhanced the potency of antiproliferative action”. Further, the IC50 is 1000 nM in series [5] (1-100 μM tested, fitted plot, read-out: IC50 value) and under 30000 nM in series [5] (read-out: IC50 (grouping relative to compound 1)). Also, the “autophagosome formation (MDC fluorescence)” value in the series with H441 cells [6] is “appearance of intracellular vacuoles or autophagosomes”. Further, the “potency of antiproliferative action” value in series [7] and in [9] was “enhanced the potency of antiproliferative action” in each case. Besides, in [8], the “histopathological toxicity in liver, lung and kidney” value is “no toxicities in these tissues”.
